Patent US6417362B1, “Nitrogenous heterocyclic compounds and hyperlipemia remedy containing the same” (Meiji Seika Kaisha, Ltd., priority 1997, dated 2002)

Experiments:
[1] = tested on: secretion of apolipoprotein B in cell strain HepG2 derived from hepatoma; test: Inhibitory activity against secretion of apolipoprotein B (sandwich ELISA); assay type: cell-based; settings: Homo sapiens; HepG2 cells, test compound at final concentration of 3 μM
Procedure: Inhibitory activity against secretion of apolipoprotein B
The inhibitory activity of the compounds according to the present invention against the secretion of apolipoprotein B was studied using cell strain HepG2 derived from hepatoma.
The test was carried out by the method of Nagata et al. (Biochem. Pharmacol., 40, 843 (1990)) and the method of Furukawa et al. (J. Biol. Chem., 267, 22630 (1992)) which had been partly modified. Specifically, HepG2 cells were cultivated in a Dulbecco's modified Eagle's medium (DMEM), containing 10% fetal calf serum (FCS), 100 units/ml penicillin, and 100 μg/ml streptomycin, placed in 96-well plates. Thereafter, the medium was replaced with DMEM containing 1% bovine serum albumin, and the test compound was simultaneously added to a final concentration of 3 μM or not added, followed by cultivation. Three hr after the replacement of the medium, acetic acid was added to a final concentration of 1 mM, followed by cultivation for additional 4 hr. The amount of apolipoprotein B secreted in the supernatant of the culture thus obtained was quantitatively determined by the sandwich ELISA method. In this case, goat anti-human apolipoprotein B polyclonal antibody (CHEMICON) was used as a primary antibody, and mouse anti-human apolipoprotein B monoclonal antibody peroxidase conjugate (BIOSYS) was used as a secondary antibody.
The inhibition (%) against the secretion of apolipoprotein B was calculated by the following equation:
Inhibition (%) of secretion of apolipoprotein B={1-(amount of apolipoprotein B secreted in the presence of drug)/(amount of apolipoprotein B secreted in the absence of drug)}×100

[2] = tested on: biosynthesis of triglycerides in cell strain HepG2 derived from human hepatoma; test: Inhibitory activity against biosynthesis of triglycerides (14C-acetic acid incorporation); assay type: cell-based; settings: HepG2 cells, test compound at final concentration of 3 μM
Procedure: Inhibitory activity against biosynthesis of triglycerides The inhibitory activity of the compounds according to the present invention against the biosynthesis of triglycerides were studied using cell strain HepG2 derived from human hepatoma.
The test was carried out by the method of Nagata et al. (Biochem. Pharmacol., 40, 843 (1990)) and the method of Furukawa et al. (J. Biol. Chem., 267, 22630 (1992)) which had been partly modified. Specifically, HepG2 cells were cultivated in a Dulbecco's modified Eagle's medium (DMEM), containing 10% fetal calf serum (FCS), 100 units/ml penicillin, and 100 μg/ml streptomycin, placed in 96-well plates. Thereafter, the medium was replaced with DMEM containing 1% bovine serum albumin, and the test compound was simultaneously added to a final concentration of 3 μM or was not added, followed by cultivation. Three hr after the replacement of the medium, ^14C-acetic acid was added to a final concentration of 1 mM, followed by cultivation for additional 4 hr. The cells were washed with a phosphate buffer (pH 7.5) containing 150 mM sodium chloride. Thereafter, lipid within the cells was extracted with n-butanol. After the extraction, the extract was evaporated to dryness under a nitrogen gas stream. The residue was dissolved in a small amount of chloroform. The solution was developed in thin-layer chromatography (developing solvent petroleum ether:diethyl ether:acetic acid=90:15:3), and a ^14C-triglyceride fraction was isolated. The amount of […] produced was then quantitatively determined with a liquid scintillation counter (Beckman, LS-6500).
The inhibition (%) of the biosynthesis of triglycerides was calculated by the following equation:
Inhibition (%) of biosynthesis of triglycerides={1-(amount of ^14C-triglycerides produced in the presence of drug)/(amount of ^14C-triglycerides produced in the absence of drug)}×100.

wistar rats (male) = test: Acute toxicity test in rats; assay type: in vivo; settings: orally administered 200 mg/kg, observed for 8 days
Procedure: (§1) An acute toxicity test was carried out using mice and rats by a conventional method.

ddY mice (male) = test: Acute toxicity test in mice; assay type: in vivo; settings: orally administered 200 mg/kg, observed for 8 days
Procedure: as §1

| Compound | inhibition at 3 µM [1] [%] | inhibition at 3 µM [2] [%] | change in general states, such as reduction in body weight (wistar rats (male)) | survival in acute toxicity test (wistar rats (male)) | change in general states, such as reduction in body weight (ddY mice (male)) | survival in acute toxicity test (ddY mice (male)) |
| --- | --- | --- | --- | --- | --- | --- |
| O=C1c2cc(N3CCN(CCC(c4ccccc4)c4ccccc4)CC3)ccc2CCN1C1CCCCC1 [Example 68, 2-Cyclohexyl-7-[4-(3,3-diphenyl-1-propyl)-piperazin-1-yl]-3,4-dihydro-2H-isoquinolin-1-one] | 61 | 64 | – | – | – | – |
| CC(C)=CCC/C(C)=C/CC/C(C)=C/CN1CCN(c2ccc3c(c2)C(=O)N(C2CCCCC2)C3)CC1 [Example 5, 2-Cyclohexyl-2,3-dihydro-6-[4-(trans,trans-farnesyl)piperazin-1-yl]-1H-isoindol-1-one] | 56 | 90 | – | – | – | – |
| CC(C)(C)OC(=O)N1CCN(c2ccc3c(c2)C(=O)N(C2CCCCC2)C3)CC1 [Example 30, 6-[4-(t-Butoxycarbonyl)piperazin-1-yl]-2-cyclo-hexyl-2,3-dihydro-1H-isoindol-1-one] | 68 | 89 | – | – | – | – |
| O=C1c2cc(N3CCN(CCC(c4ccccc4)c4ccccc4)CC3)ccc2CN1C1CCCCC1 [Example 8, 2-Cyclohexyl-2,3-dihydro-6-[4-(3,3-diphenyl-1-propyl)piperazin-1-yl]-1H-isoindol-1-one] | 70 | 79 | any change in general states, such as a reduction in body weight, did not occur | survived | any change in general states, such as a reduction in body weight, did not occur | survived |
